Measurements reported in patent US20020164367A1, “Botanical drug for increasing immunity and decreasing side effects of chemotherapy” (priority 2001, published 2002).

Experiments:
chick myocardial cell = test: Survival rate of chick myocardial cells after Adriamycin induced damage (ABC immunoperoxidase staining); format: cell-based; conditions: Adriamycin 10μ for 24 hours after 4 days in culture; BDI 150 μg/ml
Description: Hears were removed from 11 days embryos and were dissociated at 37 C. for 45 minutes with 0.25% trypsin (sigma, type III), 0.025% collagenase (sigma, type I), and 0.005% pancreatin (NBCO) prepared in calcium and magnesium free saline G containing 4% chicken serum. Then the tissue was dispersed into a single cell suspension in culture medium containing 5 g/ml DNAse I (sigma). Viable cell counts were determined by hemocyometer counting. Cells were dispersed into 60 mm culture disher (surface area 2000 mm^2) at densities of 200 cells/mm^2.
Cultures were maintained in Ham's F-12K cln^− modified and supplemented with 5% fetal bovine serum. Tissue culture plates were incubated under at constant 5% CO2 and 95% air at 37° C. Cells counted—all cells were counted in 20 randomly selected fields across the entire dish. A Zeiss microscope 25× objective having a field of view of 0.32 mm^2 was used for cell counting.
Monoclonal antibodies (diluted 1:1000 in PBS/BSA) were used. Immunostaining procedure used modified method of immunoperoxidase staining as follows.
Culture plates were added antibody of cardiac myosin before 3 hours for staining. Then culture plates continuous incubated 3 hours at 37° C.
Cell determined by recording the color and the number of microscopic fields (250×). Normal cells were light green and dead cells were brown or very dark green. […]

[1] = tested on: bone marrow stem cells (CFU-S); conditions: mice, n=10
peritoneal macrophage = conditions: macrophages with phagocytized chick red blood cells per 100 macrophages; BDI 5.5 mg/kg ip daily for 5 days; cyclophosphamide 4.5 mg/kg ip
Description: Male mice weight 18-20 g were used in the experiments and were divided into treated (BDI) and control groups. The dosage of BDI was 5.5 mg/kg injected intraperitoneally. The control mice were injected with same volume of normal saline. These injections were repeated daily for 5 days, both treated and control group were injected intraperitoneally with cyclosphosphamide.
Added 0.02 ml of 5% washed chick red blood cell suspension to 0.5 ml of the peritoneal exudates. Shook gently to mix and incubate at 37° C. for 5 minutes. Dipped two cover slips, closed to each other, in the above mixture and incubated for 30 minutes for the migration of the macrophages along the cover slips, fixed and stained with Sharma stain. Examined microscopically for:
Phagocytic rate—number of macrophages with phagocytized chick red blood cells per 100 macrophages counted.

Interleukin-2 (rIL-2) = test: Effect of BDI on Interleukin-2 (rIL-2); format: in vivo; conditions: n=10
Source text: The methods of determination rIL-2 were regular.

white blood cells = conditions: rats, 10 days of treatment
lymphocytes = conditions: 3H-TdR 1 μCi/ml, PHA stimulated
Description: 0.2 ml of formic acid was then added for digestion till the precipitate was dissolved.

DNA viruses = conditions: by weight; cited from earlier work
host cell = conditions: by weight; cited from earlier work

Compound: COc1cccc2c1C(=O)c1c(O)c3c(c(O)c1C2=O)C[C@@](O)(C(=O)CO)C[C@@H]3O[C@H]1C[C@H](N)[C@H](O)[C@H](C)O1 [Adriamycin]
- Survival rate (living/taotalx 100%) (chick myocardial cell): 36.0 ± 0.25 (*20) %

Compound: O=P1(N(CCCl)CCCl)NCCCO1 (centres unmarked) [Cyclophosphamide]
- Mean (CFU-S ± SD) [1]: 7.6 ± 0.8
- Phagocytic (rate ± SD) (peritoneal macrophage): 8.5 ± 0.90
- IL-2 (U/ml) ± SD (Interleukin-2 (rIL-2)): 47.5 ± 5.5 U/ml
- White blood cells x 10^3/cm^3 ± SD (white blood cells): 6.0 ± 0.70 10^3/cm^3
- CPM ± SD (lymphoblastoid transformation) (lymphocytes): 600 ± 65 CPM

Compound: Nc1ccn([C@@H]2O[C@H](CO)[C@@H](O)[C@@H]2O)c(=O)n1 [Cytarabine]
- Effectiveness relative to Idoxuridine (DNA viruses): about 10 times
- Toxicity for host cell relative to Idoxuridine (host cell): 10 times
